Assay results taken from patent US10450297B2, “Sulfonyl amide derivatives for the treatment of abnormal cell growth” (Pfizer, Inc., priority 2007, dated 2019).

Biological target: FAK kinase (catalytic construct FAK(410-689)) (Homo sapiens (Human), UniProt Q05397)
Assay: FAKcd kinase ELISA (inhibition of poly-glu-tyr phosphorylation by FAK(410-689))
Format: biochemical
Details: 50 μM final ATP

Chain of FAK kinase (catalytic construct FAK(410-689)) (Q05397 410-689): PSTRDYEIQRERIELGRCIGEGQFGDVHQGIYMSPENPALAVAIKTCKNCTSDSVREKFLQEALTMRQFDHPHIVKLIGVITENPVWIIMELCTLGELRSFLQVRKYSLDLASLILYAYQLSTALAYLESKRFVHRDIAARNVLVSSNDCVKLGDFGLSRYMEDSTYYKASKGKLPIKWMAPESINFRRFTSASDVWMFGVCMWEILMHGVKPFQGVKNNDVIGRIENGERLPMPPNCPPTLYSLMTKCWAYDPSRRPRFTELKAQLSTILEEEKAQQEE

SMILES	IC50
CN(c1cccc(CNc2nc(Nc3cc(C(N)=O)ccc3F)ncc2C(F)(F)F)c1)S(C)(=O)=O [Compound 374, 4-fluoro-3-{[4-({3-[methyl(methylsulfonyl)amino]benzyl}amino)-5-(trifluoromethyl)pyrimidin-2-yl]amino}benzamide]	15.5 nM
CN(c1ncccc1CNc1nc(Nc2cc(C(N)=O)ccc2F)ncc1C(F)(F)F)S(C)(=O)=O [Compound 375, 4-fluoro-3-({4-[({2-[methyl(methylsulfonyl)amino]pyridin-3-yl}methyl)amino]-5-(trifluoromethyl)pyrimidin-2-yl)amino)benzamide]	6.29 nM
CN(c1cccc(CNc2nc(Nc3ccc(F)c(C(N)=O)c3)ncc2C(F)(F)F)c1)S(C)(=O)=O [Compound 379, 2-fluoro-5-{[4-({3-[methyl(methylsulfonyl)amino]benzyl}amino)-5-(trifluoromethyl)pyrimidin-2-yl]amino}benzamide]	4.78 nM
CN(c1ncccc1CNc1nc(Nc2ccc(CNCCO)cc2)ncc1C(F)(F)F)S(C)(=O)=O [Compound 383, N-{3-[({2-[(4-{[(2-hydroxyethyl)amino]methyl}phenyl)amino]-5-(trifluoromethyl)pyrimidin-4-yl}amino)methyl]pyridin-2-yl}-N-methylmethane-sulfonamide]	< 0.595 nM
CC(C)NCc1ccc(Nc2ncc(C(F)(F)F)c(NCc3cccnc3N(C)S(C)(=O)=O)n2)cc1 [Compound 384, N-[3-({[2-({4-[(isopropylamino)methyl]phenyl}amino)-5-(trifluoromethyl)pyrimidin-4-yl]amino}methyl)pyridin-2-yl]-N-methylmethane-sulfonamide]	< 0.595 nM
CC(=O)Nc1cccc(Nc2ncc(C(F)(F)F)c(NCc3nccnc3N(C)S(C)(=O)=O)n2)c1 [Compound 385, N-[3-({4-[({3-[methyl(methylsulfonyl)amino]pyrazin-2-yl}methyl)amino]-5-(trifluoromethyl)pyrimidin-2-yl}amino)phenyl]acetamide]	1.44 nM
COCCNCc1ccc(Nc2ncc(C(F)(F)F)c(NCc3cccnc3N(C)S(C)(=O)=O)n2)cc1 [Compound 388, N-{3-[({2-((4-{[(2-methoxyethyl)amino]methyl}phenyl)amino]-5-(trifluoromethyl)pyrimidin-4-yl}amino)methyl]pyridin-2-yl}-N-methylmethane-sulfonamide]	< 0.595 nM
CN(c1ncccc1CNc1nc(Nc2ccc(C#N)c(O)c2)ncc1C(F)(F)F)S(C)(=O)=O [Compound 390, N-{3-[({2-[(4-cyano-3-hydroxyphenyl)amino]-5-(trifluoromethyl)pyrimidin-4-yl}amino)methyl]pyridin-2-yl}-N-methylmethane-sulfonamide]	0.746 nM
CN(c1nccnc1CNc1nc(Nc2ccc(C#N)c(O)c2)ncc1C(F)(F)F)S(C)(=O)=O [Compound 391, N-{3-[({2-[(4-cyano-3-hydroxyphenyl)amino]-5-(trifluoromethyl)pyrlmldin-4-yl}amino)methyl]pyrazin-2-yl}-N-methylmethane-sulfonamide]	1.24 nM
CN(c1cccc(CNc2nc(Nc3ccc(C#N)c(O)c3)ncc2C(F)(F)F)c1)S(C)(=O)=O [Compound 392, N-{3-[({2-[(4-cyano-3-hydroxyphenyl)amino]-5-(trifluoromethyl)pyrimidin-4-yl}amino)methyl]phenyl}-N-methylmethanesulfonamide]	4.51 nM
CS(=O)(=O)c1cccc(CNc2nc(Nc3ccc(C#N)c(O)c3)ncc2C(F)(F)F)c1 [Compound 393, 2-hydroxy-4-{[4-{[3-(methylsulfonyl)benzyl]amino}-5-(trifluoromethyl)pyrimidin-2-yl]amino}benzonitrile]	7.41 nM
CN(c1cccc(CNc2nc(Nc3ccc(C(N)=O)c(O)c3)ncc2C(F)(F)F)c1)S(C)(=O)=O [Compound 396, 2-hydroxy-4-{[4-({3-[methyl(methylsulfonyl)amino]benzyl}amino)-5-(trifluoromethyl)pyrimidin-2-yl]amino}bertzamide]	3.13 nM
CC(=O)NCC(=O)Nc1cccc(Nc2ncc(C(F)(F)F)c(NCc3nccnc3N(C)S(C)(=O)=O)n2)c1 [Compound 397, N-2-acetyl-N-[3-({4-[({3-[methyl(methylsulfonyl)amino]pyrazin-2-yl}methyl)amino]-5-(trifluoromethyl)pyrimidin-2-yl}amino)phenyl]glycinamide]	1.51 nM

The next lines start with the values.

IC50	SMILES
8.15 nM	CN(c1cccc(CNc2nc(Nc3ccc(C(N)=O)nc3)ncc2C(F)(F)F)c1)S(C)(=O)=O [Compound 376, 5-{[4-({3-[methyl(methylsulfonyl)amino]benzyl}amino)-5-(trifluoromethyl)pyrimidin-2-yl]amino}pyridine-2-carboxamide]
15.3 nM	CN(c1cccnc1CNc1nc(Nc2ccc(C(N)=O)nc2)ncc1C(F)(F)F)S(C)(=O)=O [Compound 377, 5-({4-[({3-[methyl(methylsulfonyl)amino]pyridin-2-yl}methyl)amino]-5-(trifluoromethyl)pyrimidin-2-yl}amino)pyridine-2-carboxamide]
1.94 nM	CN(c1cccnc1CNc1nc(Nc2cc(C(N)=O)ccc2F)ncc1C(F)(F)F)S(C)(=O)=O [Compound 378, 4-fluoro-3-({4-[({3-[methyl(methylsulfonyl)amino]pyridin-2-yl}methyl)amino]-5-(trifluoromethyl)pyrimidin-2-yl}amino)benzamide]
1.6 nM	CN(c1ncccc1CNc1nc(Nc2ccc(F)c(C(N)=O)c2)ncc1C(F)(F)F)S(C)(=O)=O [Compound 380, 2-fluoro-5-({4-[{{2-[methyl(methylsulfonyl)amino]pyridin-3-yl}methyl)amino]-5-(trifluoromethyl)pyrimidin-2-yl}amino)benzamide]
4.55 nM	CN(c1cccnc1CNc1nc(Nc2ccc(F)c(C(N)=O)c2)ncc1C(F)(F)F)S(C)(=O)=O [Compound 381, 2-fluoro-5-({4-[({3-[methyl(methylsulfonyl)amino]pyridin-2-yl}methyl)amino]-5-(trifluoromethyl)pyrimidin-2-yl}amino)benzamide]
10.7 nM	CN(c1nccnc1CNc1nc(Nc2ccc(F)c(C(N)=O)c2)ncc1C(F)(F)F)S(C)(=O)=O [Compound 382, 2-fluoro-5-({4-[({3-[methyl(methylsulfonyl)amino]pyrazin-2-yl}methyl)amino]-5-(trifluoromethyl)pyrimidin-2-yl}amino)benzamide]
1.65 nM	CC(=O)Nc1cccc(Nc2ncc(C(F)(F)F)c(NCc3ncccc3N(C)S(C)(=O)=O)n2)c1 [Compound 386, N-[3-({4-[({3-[methyl(methylsulfonyl)amino]pyridin-2-yl}methyl)amino]-5-(trifluoromethyl)pyrimidin-2-yl}amino)phenyl]acetamide]
< 0.595 nM	CN(c1ncccc1CNc1nc(Nc2ccc(C(N)=O)c(O)c2)ncc1C(F)(F)F)S(C)(=O)=O [Compound 394, 2-hydroxy-4-({4-[({2-[methyl(methylsulfonyl)amino)pyridin-3-yl}methyl)amino]-5-(trifluoromethyl)pyrimidin-2-yl}amino)benzamide]
0.849 nM	CN(c1nccnc1CNc1nc(Nc2ccc(C(N)=O)c(O)c2)ncc1C(F)(F)F)S(C)(=O)=O [Compound 395, 2-hydroxy-4-({4-(({3-[methyl(methylsulfonyl)amino]pyrazin-2-yl}methyl)amino]-5-(trifluoromethyl)pyrimidin-2-yl}amino)benzamide]
